ChEMBL document CHEMBL4732174, “Discovery of 6-(7-Nitro-2,1,3-benzoxadiazol-4-ylthio)hexanol Derivatives as Glutathione Transferase Inhibitors with Favorable Selectivity and Tolerated Toxicity” (J Med Chem, 2021)
pIC50, pKi: −log10 of the molar value.

Tests used:
liver carboxylesterase = target: T1, liver carboxylesterase (Sus scrofa, UniProt Q29550); assay: Stability of the compound assessed as pig liver carboxylesterase-mediated compound hydrolysis at 10 mM measured after 12 hrs by HPLC analysis; format: ADME; conditions: read-out: Drug degradation
T1 sequence (Q29550 whole entry): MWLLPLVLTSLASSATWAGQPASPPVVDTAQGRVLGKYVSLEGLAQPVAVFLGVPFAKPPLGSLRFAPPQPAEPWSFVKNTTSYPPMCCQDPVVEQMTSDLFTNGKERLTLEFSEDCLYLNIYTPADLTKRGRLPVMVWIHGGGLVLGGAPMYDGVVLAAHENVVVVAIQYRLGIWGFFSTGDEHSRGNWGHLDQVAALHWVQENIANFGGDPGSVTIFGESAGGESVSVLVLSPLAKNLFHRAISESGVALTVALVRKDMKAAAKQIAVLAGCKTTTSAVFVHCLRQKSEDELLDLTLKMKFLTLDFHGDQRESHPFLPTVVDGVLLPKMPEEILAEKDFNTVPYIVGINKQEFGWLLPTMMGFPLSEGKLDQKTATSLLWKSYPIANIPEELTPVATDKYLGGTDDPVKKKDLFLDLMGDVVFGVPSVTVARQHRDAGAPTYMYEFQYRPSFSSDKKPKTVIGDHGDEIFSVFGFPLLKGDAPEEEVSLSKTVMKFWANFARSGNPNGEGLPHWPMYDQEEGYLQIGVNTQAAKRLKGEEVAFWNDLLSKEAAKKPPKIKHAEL

[1] = Toxicity in BALB/c nude mouse xenografted with human 143B cells assessed as body weight loss at 20 mg/kg, po administered once daily for 28 consecutive days and measured every 3 days; format: organism-based; conditions: in vivo, 672 h, time 28 day
in vivo [2] = conditions: Sprague-Dawley, rat, po, 80 mg/kg
Description: AUC (0 to t) in Sprague-Dawley rat at 80 mg/kg, po administered as single dose measured upto 48 hrs by LC-MS/MS analysis

HUVEC = assay: Cytotoxicity against HUVEC assessed as reduction in cell viability incubated for 72 hrs by MTT assay; format: cell-based; conditions: Homo sapiens
[3] = Toxicity in BALB/c nude mouse xenografted with human 143B cells assessed as spleen edema at 5 to 20 mg/kg, po administered once daily for 28 consecutive days by hematoxylin-eosin staining based assay; format: organism-based; conditions: in vivo, 672 h, dose 5-20 mg/kg, time 28 day
143B [4] = assay: Induction of apoptosis in human 143B cells assessed as apoptotic cells at 2.5 uM incubated for 24 hrs by Annexin V-FITC/PI double staining based flow cytometric analysis (reference value: 3.9%); format: functional
[5] = target: Glutathione S-transferase P (Homo sapiens, UniProt P09211); assay: Time dependent inhibition of GSTP1-1 (unknown origin) assessed as inhibition constant using reduced GSH and CDNB as substrate by spectrophotometric method
143B [6] = assay: Antitumor activity against human 143B cells xenografted in BALB/c nude mouse assessed as tumor growth inhibition at 5 mg/kg, po administered once daily for 28 consecutive days relative to control; format: functional; conditions: 672 h, time 28 day, read-out: TGI
[7] = rat, in vivo, po, 80 mg/kg, 48 h
Description: AUC (0 to infinity) in Sprague-Dawley rat at 80 mg/kg, po administered as single dose measured upto 48 hrs by LC-MS/MS analysis

HOS = assay: Antiproliferative activity against human HOS cells assessed as inhibition of cell proliferation incubated for 72 hrs by MTT assay; format: functional, cell-based
[8] = Toxicity in BALB/c nude mouse xenografted with human 143B cells assessed as necrosis in lung at 5 to 20 mg/kg, po administered once daily for 28 consecutive days by hematoxylin-eosin staining based assay; format: organism-based; conditions: in vivo, 672 h, dose 5-20 mg/kg, time 28 day
[9] = Toxicity in BALB/c nude mouse xenografted with human 143B cells assessed as cellular inflammation in heart at 5 to 20 mg/kg, po administered once daily for 28 consecutive days by hematoxylin-eosin staining based assay; format: organism-based; conditions: in vivo, 672 h, dose 5-20 mg/kg, time 28 day
[10] = MRT (0 to t) in Sprague-Dawley rat at 80 mg/kg, po administered as single dose measured upto 48 hrs by LC-MS/MS analysis; conditions: in vivo
143B [11] = assay: Induction of cell cycle arrest in human 143B cells assessed as accumulation at G2 phase at 10 uM incubated for 48 hrs by propidium iodide staining based flow cytometry (reference value: 1.35 %); format: functional
L02 = assay: Cytotoxicity against human L02 cells assessed as reduction in cell viability incubated for 72 hrs by MTT assay; format: cell-based; conditions: L02, 72 h
[12] = Toxicity in BALB/c nude mouse xenografted with human 143B cells assessed as necrosis in spleen at 5 to 20 mg/kg, po administered once daily for 28 consecutive days by hematoxylin-eosin staining based assay; format: organism-based; conditions: in vivo, 672 h, dose 5-20 mg/kg, time 28 day
[13] = Antiproliferative activity against […] B16 cells assessed as inhibition of cell proliferation incubated for 72 hrs by MTT assay; format: functional, cell-based; conditions: B16, 72 h
143B [14] = assay: Induction of cell cycle arrest in human 143B cells assessed as accumulation at S phase at 10 uM incubated for 48 hrs by propidium iodide staining based flow cytometry (reference value: 32.03 %); format: functional
143B [15] = assay: Induction of cell cycle arrest in human 143B cells assessed as accumulation at S phase at 2.5 uM incubated for 48 hrs by propidium iodide staining based flow cytometry (reference value: 32.03 %); format: functional
in vivo [16] = conditions: Sprague-Dawley, rat, po, 80 mg/kg; remark: listed apart in the source
Description: Tmax in Sprague-Dawley rat at 80 mg/kg, po administered as single dose measured upto 48 hrs by LC-MS/MS analysis

[17] = MRT (0 to infinity) in Sprague-Dawley rat at 80 mg/kg, po administered as single dose measured upto 48 hrs by LC-MS/MS analysis; conditions: in vivo
[18] = Volume of distribution in Sprague-Dawley rat at 80 mg/kg, po administered as single dose measured upto 48 hrs by LC-MS/MS analysis; conditions: in vivo
143B [19] = assay: Induction of cell cycle arrest in human 143B cells assessed as accumulation at G1 phase at 2.5 uM incubated for 48 hrs by propidium iodide staining based flow cytometry (reference value: 66.62 %); format: functional
[20] = Toxicity in BALB/c nude mouse xenografted with human 143B cells assessed as cellular inflammation in kidney at 5 to 20 mg/kg, po administered once daily for 28 consecutive days by hematoxylin-eosin staining based assay; format: organism-based; conditions: in vivo, 672 h, dose 5-20 mg/kg, time 28 day
[21] = Toxicity in BALB/c nude mouse xenografted with human 143B cells assessed as body weight loss at 5 mg/kg, po administered once daily for 28 consecutive days and measured every 3 days; format: organism-based; conditions: in vivo, 672 h, time 28 day
[22] = Toxicity in BALB/c nude mouse xenografted with human 143B cells assessed as kidney edema at 5 to 20 mg/kg, po administered once daily for 28 consecutive days by hematoxylin-eosin staining based assay; format: organism-based; conditions: in vivo, 672 h, dose 5-20 mg/kg, time 28 day

Chain of Glutathione S-transferase P (P09211 whole entry): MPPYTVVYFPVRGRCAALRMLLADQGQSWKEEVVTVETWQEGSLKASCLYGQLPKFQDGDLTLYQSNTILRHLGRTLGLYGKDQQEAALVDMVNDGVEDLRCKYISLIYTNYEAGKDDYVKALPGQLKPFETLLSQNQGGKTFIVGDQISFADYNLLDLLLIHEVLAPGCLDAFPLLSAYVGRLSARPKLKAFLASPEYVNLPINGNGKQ

metabolised at 12 h, 10000 µM (liver carboxylesterase): 33%
AUC(0-t) at 48 h (in vivo [2]): 6420 ng·h/mL
pKi [5]: 6.77
AUC [7]: 6514.48 ng·h/mL
MRT last at 48 h [10]: 6.35 h
Tmax at 48 h (in vivo [16]): 2.33 h
MRT inf at 48 h [17]: 6.54 h
Vd [18]: 7.62 L/kg
Compound: CN(C)CCCNC(=O)CCC(=O)OCCCCCCSc1ccc([N+](=O)[O-])c2nonc12
Activity [1]: Non-Toxic
pIC50 (HUVEC): 5.80
Activity [3]: Non-Toxic
Activity (143B [4]): 46.5%
inhibition in vivo at 5 mg/kg (143B [6]): 46.4%
pIC50 (HOS): 5.73
Activity [8]: Non-Toxic
Activity [9]: Non-Toxic
Activity (143B [11]): 21.01%
pIC50 (L02): 5.37
Activity [12]: Non-Toxic
pIC50 [13]: 6.02
Activity (143B [14]): 30.32%
Activity (143B [15]): 40.75%
Activity (143B [19]): 49.79%
Activity [20]: Non-Toxic
Activity [21]: Non-Toxic
Activity [22]: Non-Toxic
